The results in this text go back to ChEMBL document CHEMBL1201862, “PubChem BioAssay data set” (2004).

Activity calls are given as the source filed them.

For one assay, the target named is T1, Coagulation factor XII (Homo sapiens, UniProt P00748).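 Further: activated factor XIIa alpha cleaving a fluorogenic AMC peptide substrate; inhibitor potency from loss of enzyme activity.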
T1 sequence (P00748 whole entry): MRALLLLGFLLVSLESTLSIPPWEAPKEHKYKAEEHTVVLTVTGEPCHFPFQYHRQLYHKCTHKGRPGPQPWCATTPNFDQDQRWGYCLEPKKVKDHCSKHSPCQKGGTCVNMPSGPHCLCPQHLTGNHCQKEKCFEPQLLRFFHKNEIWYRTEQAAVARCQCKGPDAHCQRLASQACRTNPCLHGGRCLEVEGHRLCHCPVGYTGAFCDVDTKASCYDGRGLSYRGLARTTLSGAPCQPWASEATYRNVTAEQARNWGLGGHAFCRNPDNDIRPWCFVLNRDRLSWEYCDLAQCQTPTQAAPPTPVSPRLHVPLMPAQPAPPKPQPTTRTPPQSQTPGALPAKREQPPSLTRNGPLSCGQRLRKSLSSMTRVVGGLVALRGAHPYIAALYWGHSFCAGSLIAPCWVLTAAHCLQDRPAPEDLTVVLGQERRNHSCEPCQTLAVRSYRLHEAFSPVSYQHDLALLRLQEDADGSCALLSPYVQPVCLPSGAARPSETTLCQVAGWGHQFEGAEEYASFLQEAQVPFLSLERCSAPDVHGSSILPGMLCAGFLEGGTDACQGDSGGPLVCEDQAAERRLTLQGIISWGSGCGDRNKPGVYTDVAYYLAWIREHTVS
It is filed as functional.

In assay [1] the test system is Streptococcus sp. 'group A'. The assay is described as follows: Streptococcus pyogenes SK(-)GAS viability under kanamycin – luminescence, BacTiterGlo, confirmation, counter-screen for streptokinase expression inhibitor project, dose response (AID 1900). Format: functional, organism-based.
For another assay, the target named is T2, Streptokinase A (Streptococcus pyogenes serotype M1, UniProt P10520).
T2 sequence (P10520 whole entry): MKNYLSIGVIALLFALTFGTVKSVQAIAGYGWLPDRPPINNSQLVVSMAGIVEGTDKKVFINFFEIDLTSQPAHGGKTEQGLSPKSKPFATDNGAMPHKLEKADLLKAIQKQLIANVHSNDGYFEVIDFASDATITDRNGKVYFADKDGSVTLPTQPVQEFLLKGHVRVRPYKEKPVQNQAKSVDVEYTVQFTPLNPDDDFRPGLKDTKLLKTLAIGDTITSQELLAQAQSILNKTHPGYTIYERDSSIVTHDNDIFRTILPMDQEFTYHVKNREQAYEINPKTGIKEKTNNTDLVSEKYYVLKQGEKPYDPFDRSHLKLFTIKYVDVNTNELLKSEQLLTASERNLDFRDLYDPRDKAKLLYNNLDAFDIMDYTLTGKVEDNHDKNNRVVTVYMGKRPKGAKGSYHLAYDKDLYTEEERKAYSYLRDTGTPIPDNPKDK
Description: viability-normalized secreted streptokinase activity reduction – plasminogen activation absorbance, OD405, dose response (AID 1914).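 Further: secreted streptokinase activity via plasminogen activation per viability signal from cell pellet.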 It is filed as functional, Streptococcus pyogenes M1 GAS.

The target in the next assay is Prothrombin (Homo sapiens, UniProt P00734). The assay is described as follows: Thrombin 1536 HTS Dose Response Confirmation. [Related pubchem assays: 1046 (Thrombin 1536 HTS; hits were confirmed in this assay)]. It is filed as functional.
In another assay the test system is Streptococcus. The assay is described as follows: GAS UMAA2166 growth inhibition – luminescence, BacTiterGlo, counter-screen for streptokinase expression inhibitor project, dose response (AID 1915).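 Further: potency for reduction of bacterial viability or growth.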 It is filed as functional, organism-based.
A further assay concerns the target Nonstructural protein 1 (Influenza A virus, UniProt Q194T2). Format: functional, Influenza A virus (A/California/07/2009(H1N1)).
Assay [2] deals with T3, Mannose-6-phosphate isomerase (Homo sapiens, UniProt P34949).
T3 sequence (P34949 whole entry): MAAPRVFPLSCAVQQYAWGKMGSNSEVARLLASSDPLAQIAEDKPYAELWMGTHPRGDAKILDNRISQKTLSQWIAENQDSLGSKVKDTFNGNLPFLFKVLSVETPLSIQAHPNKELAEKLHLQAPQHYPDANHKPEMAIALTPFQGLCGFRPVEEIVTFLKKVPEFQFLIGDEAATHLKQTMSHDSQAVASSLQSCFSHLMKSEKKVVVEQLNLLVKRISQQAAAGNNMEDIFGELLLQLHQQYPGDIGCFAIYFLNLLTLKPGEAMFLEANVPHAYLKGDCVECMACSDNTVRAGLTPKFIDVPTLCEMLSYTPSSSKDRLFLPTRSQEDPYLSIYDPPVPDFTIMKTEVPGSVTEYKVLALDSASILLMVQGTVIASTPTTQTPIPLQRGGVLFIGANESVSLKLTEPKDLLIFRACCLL
The assay is described as follows: MPI inhibition at elevated mannose 6-phosphate – biochemical, fluorescence intensity, high mannose 6-phosphate, primary screen (AID 1220).

The target of the next assay is Cytochrome P450 2C19 (Homo sapiens, UniProt P33261). The assay is described as follows: Cytochrome panel assay with activity outcomes. Panel member name: p450-cyp2c19 Compounds with AC50 equal or less than 10 uM are considered active. Format: functional. The following applies: read-out: AC50.
Sequence of Cytochrome P450 2C19 (P33261 whole entry): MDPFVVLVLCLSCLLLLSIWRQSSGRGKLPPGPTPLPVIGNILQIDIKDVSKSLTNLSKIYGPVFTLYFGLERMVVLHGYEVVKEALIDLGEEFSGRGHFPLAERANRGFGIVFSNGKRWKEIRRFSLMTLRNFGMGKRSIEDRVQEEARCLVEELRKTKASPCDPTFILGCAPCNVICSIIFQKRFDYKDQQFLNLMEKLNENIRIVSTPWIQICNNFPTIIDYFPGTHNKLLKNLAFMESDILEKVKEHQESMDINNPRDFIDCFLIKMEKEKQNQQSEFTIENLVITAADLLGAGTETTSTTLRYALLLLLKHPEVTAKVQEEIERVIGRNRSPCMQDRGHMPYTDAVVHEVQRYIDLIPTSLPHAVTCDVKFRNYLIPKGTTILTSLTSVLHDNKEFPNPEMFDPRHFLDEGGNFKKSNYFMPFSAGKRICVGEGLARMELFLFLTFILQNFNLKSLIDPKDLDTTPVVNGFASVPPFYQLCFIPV
Assay [3] deals with T4, Histone-lysine N-methyltransferase NSD2 (Homo sapiens, UniProt O96028).
T4 sequence (O96028 whole entry): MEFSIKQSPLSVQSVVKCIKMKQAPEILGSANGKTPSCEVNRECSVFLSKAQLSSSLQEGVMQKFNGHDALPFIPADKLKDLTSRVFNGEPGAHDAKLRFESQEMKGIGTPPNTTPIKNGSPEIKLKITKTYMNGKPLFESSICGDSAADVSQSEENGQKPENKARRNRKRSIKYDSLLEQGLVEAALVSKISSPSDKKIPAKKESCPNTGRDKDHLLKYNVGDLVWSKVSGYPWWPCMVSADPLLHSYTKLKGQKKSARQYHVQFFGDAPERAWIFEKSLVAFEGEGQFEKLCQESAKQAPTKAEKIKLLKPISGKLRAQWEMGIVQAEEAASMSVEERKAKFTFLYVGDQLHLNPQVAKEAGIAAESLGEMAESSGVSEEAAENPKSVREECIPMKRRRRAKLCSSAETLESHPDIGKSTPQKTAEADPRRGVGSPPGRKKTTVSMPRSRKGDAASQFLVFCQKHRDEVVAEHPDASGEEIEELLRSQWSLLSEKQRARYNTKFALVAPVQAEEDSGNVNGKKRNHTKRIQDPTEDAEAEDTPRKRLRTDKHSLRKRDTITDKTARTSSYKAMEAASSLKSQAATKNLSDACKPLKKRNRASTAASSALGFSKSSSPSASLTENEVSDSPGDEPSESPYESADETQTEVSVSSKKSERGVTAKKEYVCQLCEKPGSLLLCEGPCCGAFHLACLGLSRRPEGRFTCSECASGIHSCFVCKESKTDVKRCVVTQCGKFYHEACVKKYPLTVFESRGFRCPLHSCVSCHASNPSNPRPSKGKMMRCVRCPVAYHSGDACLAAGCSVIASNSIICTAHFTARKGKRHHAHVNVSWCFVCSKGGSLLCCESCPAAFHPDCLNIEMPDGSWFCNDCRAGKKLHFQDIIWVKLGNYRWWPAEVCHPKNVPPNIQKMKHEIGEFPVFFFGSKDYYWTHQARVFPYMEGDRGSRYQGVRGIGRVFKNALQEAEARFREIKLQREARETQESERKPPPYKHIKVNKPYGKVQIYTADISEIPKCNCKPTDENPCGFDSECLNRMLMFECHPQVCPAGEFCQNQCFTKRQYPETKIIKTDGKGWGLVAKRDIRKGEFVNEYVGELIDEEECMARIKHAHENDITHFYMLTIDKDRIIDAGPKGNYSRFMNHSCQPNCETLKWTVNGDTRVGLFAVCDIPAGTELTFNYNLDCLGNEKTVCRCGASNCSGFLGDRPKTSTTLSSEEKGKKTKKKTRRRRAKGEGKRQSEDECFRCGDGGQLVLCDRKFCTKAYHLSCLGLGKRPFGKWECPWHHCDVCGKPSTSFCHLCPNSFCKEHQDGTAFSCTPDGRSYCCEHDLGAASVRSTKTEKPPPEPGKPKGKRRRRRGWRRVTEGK
Format: biochemical.

A further assay addresses Cytochrome P450 2D6 (Homo sapiens, UniProt P10635).
In the next assay the target is Cytochrome P450 2C9 (Homo sapiens, UniProt P11712).
Sequence of Cytochrome P450 2C9 (P11712 whole entry): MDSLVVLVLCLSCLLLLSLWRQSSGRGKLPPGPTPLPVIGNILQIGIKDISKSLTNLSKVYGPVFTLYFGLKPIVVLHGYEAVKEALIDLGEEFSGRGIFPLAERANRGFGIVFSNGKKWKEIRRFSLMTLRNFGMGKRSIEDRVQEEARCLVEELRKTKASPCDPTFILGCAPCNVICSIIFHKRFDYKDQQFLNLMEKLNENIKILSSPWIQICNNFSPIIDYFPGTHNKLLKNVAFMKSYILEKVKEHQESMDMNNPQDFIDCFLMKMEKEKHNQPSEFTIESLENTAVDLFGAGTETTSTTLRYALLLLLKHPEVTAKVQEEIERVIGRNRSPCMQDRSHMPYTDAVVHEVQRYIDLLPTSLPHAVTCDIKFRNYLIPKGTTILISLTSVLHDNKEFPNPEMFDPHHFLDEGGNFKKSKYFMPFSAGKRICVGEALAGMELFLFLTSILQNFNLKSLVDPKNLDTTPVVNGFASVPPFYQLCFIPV
A short description of assay [4]: cells. Format: functional, cell-based.
Assay [5] is described as follows: cells. Format: functional, cell-based. This is another data set of the same source.
Assay [6] deals with T5, Replicative DNA helicase DnaB (Mycobacterium tuberculosis, UniProt P9WMR3).
T5 sequence (P9WMR3 whole entry): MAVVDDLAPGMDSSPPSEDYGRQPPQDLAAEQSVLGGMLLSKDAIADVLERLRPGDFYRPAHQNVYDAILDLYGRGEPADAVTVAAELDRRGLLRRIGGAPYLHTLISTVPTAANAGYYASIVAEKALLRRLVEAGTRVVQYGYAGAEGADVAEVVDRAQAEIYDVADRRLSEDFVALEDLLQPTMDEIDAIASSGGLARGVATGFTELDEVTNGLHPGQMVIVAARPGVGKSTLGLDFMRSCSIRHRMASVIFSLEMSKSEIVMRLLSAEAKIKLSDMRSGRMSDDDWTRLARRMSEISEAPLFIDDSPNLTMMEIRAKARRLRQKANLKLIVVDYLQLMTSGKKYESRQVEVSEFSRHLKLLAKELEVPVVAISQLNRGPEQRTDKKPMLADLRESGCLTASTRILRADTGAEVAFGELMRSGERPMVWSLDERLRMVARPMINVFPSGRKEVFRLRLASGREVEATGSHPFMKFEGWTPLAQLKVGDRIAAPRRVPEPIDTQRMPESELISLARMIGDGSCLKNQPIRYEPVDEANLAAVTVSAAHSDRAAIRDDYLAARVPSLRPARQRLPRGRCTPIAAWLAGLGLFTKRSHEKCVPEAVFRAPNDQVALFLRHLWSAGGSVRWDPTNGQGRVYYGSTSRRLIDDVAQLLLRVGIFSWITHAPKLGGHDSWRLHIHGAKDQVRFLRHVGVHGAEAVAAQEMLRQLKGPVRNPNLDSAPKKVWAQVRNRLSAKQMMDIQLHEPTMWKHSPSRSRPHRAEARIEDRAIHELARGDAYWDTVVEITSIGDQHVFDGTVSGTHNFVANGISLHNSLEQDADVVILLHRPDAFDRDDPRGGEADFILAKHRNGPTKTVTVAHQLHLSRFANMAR
Description: DnaB intein splicing inhibitors, dose response, biochemical, cell-free fluorescence (AID 449749). Format: functional.

Another assay addresses T6, Protein RecA (Mycobacterium tuberculosis, UniProt P9WHJ3).
T6 sequence (P9WHJ3 whole entry): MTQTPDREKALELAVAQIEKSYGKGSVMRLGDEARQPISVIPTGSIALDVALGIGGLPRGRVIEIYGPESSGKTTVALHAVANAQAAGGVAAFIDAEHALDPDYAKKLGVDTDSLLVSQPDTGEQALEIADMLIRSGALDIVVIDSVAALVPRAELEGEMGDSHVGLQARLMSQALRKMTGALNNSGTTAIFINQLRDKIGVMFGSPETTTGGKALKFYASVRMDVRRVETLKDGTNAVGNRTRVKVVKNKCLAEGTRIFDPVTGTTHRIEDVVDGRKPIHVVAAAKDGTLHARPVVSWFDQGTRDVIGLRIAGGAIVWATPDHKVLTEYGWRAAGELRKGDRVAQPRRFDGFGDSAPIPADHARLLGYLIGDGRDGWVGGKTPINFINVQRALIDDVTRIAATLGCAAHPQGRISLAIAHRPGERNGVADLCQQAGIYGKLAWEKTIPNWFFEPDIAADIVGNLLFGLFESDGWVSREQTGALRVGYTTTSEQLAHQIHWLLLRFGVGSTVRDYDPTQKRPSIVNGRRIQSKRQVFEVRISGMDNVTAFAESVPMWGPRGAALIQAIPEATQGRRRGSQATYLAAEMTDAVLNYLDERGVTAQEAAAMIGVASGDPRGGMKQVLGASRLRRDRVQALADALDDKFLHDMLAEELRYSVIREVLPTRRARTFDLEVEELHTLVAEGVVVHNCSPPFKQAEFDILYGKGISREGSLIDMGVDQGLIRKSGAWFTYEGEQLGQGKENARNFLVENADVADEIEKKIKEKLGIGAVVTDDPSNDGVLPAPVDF
The assay is described as follows: Fluorescence Cell-Free Homogeneous Dose Retest to Identify Inhibitors of RecA-Intein Splicing Activity. [Related pubchem assays (depositor defined):AID2097, AID2223, AID489010, AID492950]. Format: functional.

Sequence of Nonstructural protein 1 (Q194T2 whole entry): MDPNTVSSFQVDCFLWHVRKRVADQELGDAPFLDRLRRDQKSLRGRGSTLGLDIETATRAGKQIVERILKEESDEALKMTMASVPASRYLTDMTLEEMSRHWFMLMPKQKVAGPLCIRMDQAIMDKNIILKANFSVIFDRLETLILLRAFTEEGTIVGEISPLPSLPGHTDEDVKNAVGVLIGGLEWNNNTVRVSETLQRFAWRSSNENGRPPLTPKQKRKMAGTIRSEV
Sequence of Cytochrome P450 2D6 (P10635 whole entry): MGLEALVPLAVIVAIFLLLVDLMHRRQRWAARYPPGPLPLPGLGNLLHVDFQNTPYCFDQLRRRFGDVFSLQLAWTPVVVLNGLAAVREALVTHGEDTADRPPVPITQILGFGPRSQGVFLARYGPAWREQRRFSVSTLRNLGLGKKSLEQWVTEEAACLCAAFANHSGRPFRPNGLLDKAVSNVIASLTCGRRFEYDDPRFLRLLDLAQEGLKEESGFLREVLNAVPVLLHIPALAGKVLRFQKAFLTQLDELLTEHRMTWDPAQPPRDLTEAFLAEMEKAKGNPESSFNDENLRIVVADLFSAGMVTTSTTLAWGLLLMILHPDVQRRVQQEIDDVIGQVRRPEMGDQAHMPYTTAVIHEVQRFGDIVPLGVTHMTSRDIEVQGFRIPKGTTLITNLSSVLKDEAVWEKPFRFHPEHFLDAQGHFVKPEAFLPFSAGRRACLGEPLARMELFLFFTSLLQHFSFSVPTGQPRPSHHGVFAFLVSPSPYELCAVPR

On to `Cc1cc(C)n(-c2nnc(C)n2NS(=O)(=O)c2ccc(F)cc2)n1`, for which the IC50 at Coagulation factor XII was > 50 µM (inactive).

For `CS(=O)(=O)c1ccc2nc(NC(=O)c3ccc(NS(=O)(=O)c4cccc([N+](=O)[O-])c4)cc3)sc2c1`, the concentration for a half-maximal effect (EC50) is 2.32 µM (active) in [1], > 150 µM (not active) at Streptokinase A and 12 µM (active) in the assay with Streptococcus. Also, on Prothrombin, the IC50 was > 50 µM (not active).

Take `O=C(O)Cc1ccc(NC(=O)CCN2C(=O)c3ccc([N+](=O)[O-])cc3C2=O)cc1`: the IC50 at Coagulation factor XII was > 50 µM (inactive).

In the case of `CCOc1ccc(OCC)c(NC(=O)CCS(=O)(=O)c2ccc(Br)s2)c1`, at Prothrombin, the IC50 was 3.1 µM (active).

`O=C1SCCC1NC(=O)C(c1ccccc1)c1ccccc1` (stereo not drawn): the IC50 on Coagulation factor XII is > 50 µM (inactive).

In the case of `Cc1nnc2c(-c3ccccc3)nc3ccccc3n12`, the half-inhibitory concentration (IC50) against Prothrombin is recorded as > 50 µM (not active).

For the molecule `Cc1ccccc1NC(=O)Nc1ccccc1Br`, the concentration for half-maximal inhibition (IC50) against Prothrombin is > 50 µM (not active).

As for `O=[N+]([O-])c1ccc(O)c(Nc2c([N+](=O)[O-])ccc3nonc23)c1`, the 50% inhibitory concentration (IC50) at Nonstructural protein 1 was 64.5 µM (active).

Regarding `Nc1cccc2cnccc12`, the IC50 in [2] is on record as > 50 µM (not active). Moreover, the AC50 on Cytochrome P450 2C19 is 20 µM (inconclusive); in assay [3], > 20 µM (inactive); at Cytochrome P450 2D6, 22.4 µM (inconclusive); on Cytochrome P450 2C9, 28.2 µM (inconclusive).

As for `Cc1[nH]n(-c2ccccc2)c(=O)c1N=Nc1ccc2c(c1)OCCO2`, the EC50 in “cells [4]” and in the assay “cells [5]” was > 350 µM (not active) each time. In addition, the IC50 at Nonstructural protein 1 is 41.2 µM (active).

On to `Cc1ccc(C(=O)N/N=C/c2ccc(-c3ccccc3[N+](=O)[O-])o2)cn1`, for which the IC50 in assay [2] was > 50 µM (not active). For the same molecule, the half-maximal activity concentration (AC50) in assay [6] was 30.6 µM (active). Moreover, the EC50 at Protein RecA was 13.5 µM (active).

`O=C(CCc1ccc(O)cc1)N/N=C/c1coc2ccccc2c1=O`: the half-maximal inhibitory concentration (IC50) on Prothrombin was 6.25 µM (active).
